Assay results from US6353128B1, “Phenyl acetamides as sPLA2 inhibitors” (Eli Lilly and Company, priority 1996, dated 2002).

Legend:
[1] = Titration (66% DMF); assay type: physicochemical
Source text: Titration (66% DMF): pK=7.4, Apparent Mol. Wt.=463 (457 Calculated) Mass Spectral Analysis (FAB) m/z: 458 [(M+1)^+]

melting point | Structure (SMILES) | pK [1]
– | NC(=O)C(O)c1ccc(Oc2cccc(-c3ccccc3)c2)cc1OCCCCC(=O)[O-].[Na+] (racemic) [Example 7, Sodium(RS)-2-(4-carboxybutoxy)-4-(3-phenylphenoxy)phenyl-2-hydroxyacetamide] | 7.4
170 to 171 °C | NC(=O)Cc1ccc(Oc2ccc(F)cc2)cc1 [Example 1, 4-(4-fluorophenoxy)phenylacetamide] | –
161 to 163 °C | NC(=O)Cc1ccc(Oc2ccccc2)cc1 [Example 2, 4-phenoxyphenylacetamide] | –
115 to 117 °C | NC(=O)Cc1cccc(Oc2ccccc2)c1 [Example 3, 3-phenoxyphenylacetamide] | –
